Here are results for 51 compounds from patent publication US20230150997A1, “EIF4E INHIBITORS AND USES THEREOF” (PIC Therapeutics, Inc., priority 2021, published 2023).

For the experiment, the target named is T1, Human eIF4E (Homo sapiens, UniProt P06730).
T1 construct: Human eIF4E (aa 28-217) with a C-terminal His-tag; made in house
T1 sequence (P06730 28-217): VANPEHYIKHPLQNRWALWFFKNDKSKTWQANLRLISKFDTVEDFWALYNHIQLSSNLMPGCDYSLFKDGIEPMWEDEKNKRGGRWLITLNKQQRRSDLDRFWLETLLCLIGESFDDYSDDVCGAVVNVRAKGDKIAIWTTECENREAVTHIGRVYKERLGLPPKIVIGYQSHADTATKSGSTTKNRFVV
The experiment in a line: Human eIF4E/4G2 binding assay (TR-FRET). The settings on record: purified human eIF4E (aa 28-217), biotin labeled 4G2 peptide, 4 hours preincubation at room temperature. The method, then: Example 3. Compound Testing in Human eIF4E/4G2 Binding Assay
Human eIF4E (aa 28-217) with a C-terminal His-tag was expressed in E. coli in inclusion bodies. The protein was solubilized with 8 M urea and purified under denaturing conditions using nickel-charged HisTrap HP columns (GE Healthcare). The purified protein was then refolded by diluting in 20 mM Hepes pH 7.0, 0.5 M NaCl, 1 mM DTT, 1 mM EDTA, 0.5 M arginine plus 6 M urea, and then dialyzing overnight into the same buffer without the urea. The protein was further dialyzed into 20 mM Hepes, pH 6.5, 50 mM NaCl, 1 mM EDTA, 1 mM DTT, and concentrated using Hitrap SP sepharose FF columns (GE Healthcare). The concentrated protein was dialyzed into 20 mM Hepes, pH 7.0, 0.5 M NaCl, 5 mM DTT and 10% glycerol, and stored at -80° C. until use.
Test compounds (3.43 mM stock in DMSO) were diluted 2-fold in series in DMSO (10 concentration points). Compound solutions (1.2 µl/well) were added into black 384-well polypropylene microplates (Matrix, Thermal Scientific). Twenty-two microliters per well of Assay Buffer (50 mM NaPi, pH 6.5, 50 mM KCl, 1 mM DTT and 0.5 mg/ml gamma globulin) and eight microliters per well of 82.5 nM purified eIF4E in Assay Buffer were added. The samples were incubated at room temperature (20-23° C.) for 4 hours. Biotin labeled 4G2 peptide (Ac-Lys-Gln-Tyr-Asp-Arg-Glu-Phe-Leu-Leu-Asp-Phe-Gln-Phe-Met-Pro-Lys(Aha-Bio)-NH2, 1.75 µM stock in DMSO) was diluted to 0.14 µM in Assay Buffer (without DTT) and 5 µl/well was added. The samples were incubated at room temperature for 20 min. Five microliters per well of 6.4 nM Eu-streptavidin (Eu-SA, Perkin Elmer) and 80 nM Allophycocyanin (APC)-anti His antibody (Columbia Biosciences) in Assay Buffer (without DTT) were then added and the samples were incubated at room temperature for 20 min.
Assay signals were monitored by reading excitation at 340 nm and emission fluorescence at 615 nm and 665 nm on an Envision reader (Perkin Elmer). Normalized TR-FRET (time-resolved fluorescence resonance energy transfer) assay signal (Rn) was calculated by the formula: Rn = [(A-Ba-C x D)/(D-Bd)] x (Dc- Bd) • Where A is the fluorescence intensity of the sample at 665 nm, • D is the fluorescence intensity of the sample at 615 nm, • Ba and Bd are plate backgrounds at 665 nm and 615 nm, respectively, • Dc is the fluorescence intensity of 0.78 nM Eu-SA in the assay buffer at 615 nm • The cross-talk factor (C) is determined by the following formula: • C = (Ac- Ba)/(Dc-Bd) • Where Ac is the fluorescence intensity of 0.78 nM Eu-SA in the assay buffer at 665 nm.
IC50 values were calculated using xLFit program (IDBS). Table 2 below lists […] of some compounds, wherein A represents IC50 ≤ 0.5 µM; B represents 0.5 uM < IC50 ≤ 1 µM; and C represents IC50 > 1 µM.
Consider `COCCOc1ccc(-c2nc(Nc3ncc(-c4ccco4)cc3C(=O)O)sc2CC(C)C)cc1F` [I-57], for which the IC50 (commonly the concentration at which inhibition is half-maximal) is 500 to 1000 nM.
On to `COCCOc1cc(-c2nc(Nc3ncc(-c4cccs4)cc3C(=O)O)sc2CCC(C)C)ccc1F` [I-84], for which the IC50 is not above 500 nM.
In the case of `COc1ccc(-c2nc(Nc3cc(-c4ccccc4)sc3C(=O)O)sc2CC(C)C)cc1` [I-12] it was 500 to 1000 nM; in that of `COCCOc1ccc(-c2nc(Nc3ncc(-c4cccs4)cc3C(=O)O)sc2CC(C)C)cc1C(F)(F)F` [I-58], not above 500 nM; in that of `CC(C)Cc1sc(Nc2ncc(-c3cccs3)cc2C(=O)O)nc1-c1ccc(O)c(Cl)c1` [I-1, 2-((4-(3-chloro-4-hydroxyphenyl)-5-isobutylthiazol-2-yl)amino)-5-(thiophen-2-yl)nicotinic acid], not above 500 nM.
Consider `CC(C)Cc1sc(Nc2ncc(-c3cccs3)cc2C(=O)O)nc1-c1ccc(F)c(OC(C)C)c1` [I-86], for which the IC50 is not above 500 nM.
Compound `CC(C)Cc1sc(Nc2ncc(-c3cccs3)cc2C(=O)O)nc1-c1ccc(OC(F)(F)F)c(F)c1` [I-10] returned an IC50 not above 500 nM.
Consider `COCCOc1cc(-c2nc(Nc3ncc(-c4cccs4)cc3C(=O)O)sc2CC(C)C)ccc1F` [I-59], for which the IC50 lay within 500 to 1000 nM.
Next, `COc1cc(-c2nc(Nc3ncc(-c4cccs4)cc3C(=O)O)sc2CCC(C)C)ccc1C(F)(F)F` [I-88]: not above 500 nM.
Next, `CCOc1cccc(-c2nc(Nc3ncc(-c4cccs4)cc3C(=O)O)sc2CC(C)C)c1` [I-79]: not above 500 nM.
On to `COCCOc1ccc(-c2nc(Nc3ncc(-c4cc(C)cs4)cc3C(=O)O)sc2CC(C)C)cc1` [1-35], for which the IC50 was not above 500 nM.
`COc1cc(-c2nc(Nc3ncc(-c4cccs4)cc3C(=O)O)sc2CCC(C)C)ccc1C` [I-108] came in with an IC50 not above 500 nM.
Consider `COc1ccc(-c2nc(Nc3ncc(-c4cccs4)cc3C(=O)O)sc2C2CC2)cc1F` [I-28], for which the IC50 is 500 to 1000 nM.
As for `O=C(O)c1cc(-c2cccs2)cnc1Nc1nc(-c2ccc(OC3CC3)cc2)c(C2CC2)s1` [I-19], the IC50 lay within 500 to 1000 nM.
Regarding `COCCOc1ccc(-c2nc(Nc3ncc(-c4cccs4)cc3C(=O)O)sc2C2CCCC2)cc1F` [I-32], the IC50 fell in the range of 500 to 1000 nM.
With `CC(C)Cc1sc(Nc2ncc(-c3cccs3)cc2C(=O)O)nc1-c1ccc2c(c1)OCO2` [I-124, 2-((4-(benzo[d][1,3]dioxol-5-yl)-5-isobutylthiazol-2-yl)amino)-5-(thiophen-2-yl)nicotinic acid], the IC50 is not above 500 nM.
Turning to `COc1cccc(-c2nc(Nc3ncc(-c4cccs4)cc3C(=O)O)sc2CC(C)C)c1` [I-78], the IC50 is not above 500 nM.
Next, `COCCOCCOc1ccc(-c2nc(Nc3ncc(-c4cccs4)cc3C(=O)O)sc2CC(C)C)cc1F` [I-68]: 500 to 1000 nM.
`COCCOc1ccc(-c2nc(Nc3ncc(-c4cccs4)cc3C(=O)O)sc2C2CC2)cc1F` [I-29] came in with a half-maximal inhibitory concentration (IC50) of 500 to 1000 nM.
In turn, `COCCOc1ccc(-c2nc(Nc3ncc(-c4cccs4)cc3C(=O)OC)sc2CC(C)C)cc1F` [I-53, methyl 2-((4-(3-fluoro-4-(2-methoxyethoxy)phenyl)-5-isobutylthiazol-2-yl)amino)-5-(thiophen-2-yl)nicotinate] had a half-inhibitory concentration (IC50) of more than 1000 nM.
On to `COCCOc1cc(C)cc(-c2nc(Nc3ncc(-c4cccs4)cc3C(=O)O)sc2CC(C)C)c1` [I-118], for which the IC50 was not above 500 nM.
Next, `Cc1ccc(-c2cnc(Nc3nc(-c4ccc(OC(F)F)cc4)c(C4CCCC4)s3)c(C(=O)O)c2)s1` [I-40]: not above 500 nM; `COCCOc1ccc(-c2nc(Nc3ncc(-c4cccs4)cc3C(=O)O)sc2CC(C)C)cc1` [I-16]: not above 500 nM; `COc1cc(-c2nc(Nc3ncc(-c4cccs4)cc3C(=O)O)sc2CC(C)C)ccc1C(F)(F)F` [I-77]: not above 500 nM.
Regarding `O=C(O)c1sc(-c2ccccc2)cc1Nc1nc(-c2ccc(O)cc2)c(C2CC2)s1` [I-24], the IC50 was more than 1000 nM.
Compound `CC(C)Cc1sc(Nc2ncc(-c3cccs3)cc2C(=O)O)nc1-c1cccc(O)c1` [I-111] yielded an IC50 of 500 to 1000 nM.
On to `COc1ccc(-c2nc(Nc3cc(-c4ccccc4)sc3C(=O)O)sc2C2CC2)cc1` [I-21], for which the IC50 lay within 500 to 1000 nM.
In turn, `COCCOc1ccc(-c2nc(Nc3ncc(-c4ccsc4)cc3C(=O)O)sc2CC(C)C)cc1F` [I-55] yielded an IC50 of 500 to 1000 nM.
`COCCOc1ccc(-c2nc(Nc3ncc(-c4cccs4)cc3C(=O)O)sc2CC2CCCCC2)cc1F` [I-72] returned an IC50 not above 500 nM.
Compound `COc1cc(-c2nc(Nc3ncc(-c4cccs4)cc3C(=O)O)sc2CC(C)C)cc(C(F)(F)F)c1` [I-104, 2-((5-isobutyl-4-(3-methoxy-5-(trifluoromethyl)phenyl)thiazol-2-yl)amino)-5-(thiophen-2-yl)nicotinic acid] came in with an IC50 not above 500 nM.
Next, `COCCOc1cc(-c2nc(Nc3ncc(-c4cccs4)cc3C(=O)O)sc2CC(C)C)ccc1C(F)(F)F` [I-76, 2-((5-isobutyl-4-(3-(2-methoxyethoxy)-4-(trifluoromethyl)phenyl)thiazol-2-yl)amino)-5-(thiophen-2-yl)nicotinic acid]: not above 500 nM.
Regarding `CC(C)Cc1sc(Nc2ncc(-c3cccs3)cc2C(=O)O)nc1-c1ccc(F)c(OCCOC(C)C)c1` [I-87], the IC50 was not above 500 nM.
Next, `CCOc1cccc(-c2nc(Nc3cc(C(=O)O)c(-c4cccs4)cn3)sc2CC(C)C)c1` [I-130, 2-((4-(3-ethoxyphenyl)-5-isobutylthiazol-2-yl)amino)-5-(thiophen-2-yl)isonicotinic acid]: 500 to 1000 nM; `CCOc1cccc(-c2nc(Nc3ncc(-c4ccco4)cc3C(=O)O)sc2CC(C)C)c1` [I-115]: not above 500 nM.
With `CC(C)Cc1sc(Nc2ncc(-c3cccs3)cc2C(=O)O)nc1-c1cccc(OCC(F)(F)F)c1` [I-102], the IC50 was not above 500 nM.
With `COCCOc1ccc(-c2nc(Nc3ncc(-c4cccc(F)c4)cc3C(=O)O)sc2CC(C)C)cc1F` [I-52], the IC50 was not above 500 nM.
As to `COc1ccc(-c2nc(Nc3ncc(-c4cccs4)nc3C(=O)O)sc2CCC(C)C)cc1F` [I-62], the IC50 was not above 500 nM.
The compound `CC(C)Cc1sc(Nc2ncc(-c3cccs3)cc2C(=O)O)nc1-c1ccc(OCC(N)=O)cc1` [I-17, 2-((4-(4-(2-amino-2-oxoethoxy)phenyl)-5-isobutylthiazol-2-yl)amino)-5-(thiophen-2-yl)nicotinic acid] displayed an IC50 not above 500 nM.
For the compound `COCCOc1ccc(-c2nc(Nc3ncc(-c4cccs4)cc3C(=O)O)sc2C2CC2)c(F)c1` [I-26], the IC50 is more than 1000 nM.
In the case of `CC(C)Cc1sc(Nc2ncc(-c3cccs3)cc2C(=O)O)nc1-c1cccc(OC(C)C)c1` [I-113], the IC50 was not above 500 nM.
Next, `COc1cc(-c2nc(Nc3ncc(-c4cccs4)cc3C(=O)O)sc2CC(C)C)ccc1C` [I-107]: not above 500 nM; `COCCOc1ccc(-c2nc(Nc3ncc(-c4cc(C)cs4)cc3C(=O)O)sc2CC(C)C)cc1F` [I-42]: not above 500 nM.
`CCOc1cc(-c2nc(Nc3ncc(-c4cccs4)cc3C(=O)O)sc2CC(C)C)ccc1Cl` [I-80] displayed an IC50 not above 500 nM.
In the case of `COCCOc1ccc(-c2nc(Nc3ncc(-c4nccs4)cc3C(=O)O)sc2CC(C)C)cc1F` [I-51] it was not above 500 nM.
Turning to `COc1ccc(-c2nc(Nc3ccc(-c4cccs4)nc3C(=O)O)sc2CC(C)C)cc1F` [I-70], the half-inhibitory concentration (IC50) was not above 500 nM.
For `COCCOc1ccc(-c2nc(Nc3ncc(-c4ccc(C)s4)cc3C(=O)O)sc2CC(C)C)cc1` [I-34], the IC50 was not above 500 nM.
The compound `CCCOc1cccc(-c2nc(Nc3ncc(-c4cccs4)cc3C(=O)O)sc2CC(C)C)c1` [I-106] yielded an IC50 not above 500 nM.
As for `COCCOc1ccc(-c2nc(Nc3ncc(-c4cccs4)cc3C(=O)O)sc2CCOC)cc1F` [I-50], the IC50 was in the range of 500 to 1000 nM.
In the case of `COCCOc1cc(-c2nc(Nc3ncc(-c4cccs4)cc3C(=O)O)sc2CCC(C)C)ccc1Cl` [I-83], the half-inhibitory concentration (IC50) was not above 500 nM.
The compound `COc1ccc(-c2nc(Nc3ncc(-c4cccs4)cc3C(=O)O)sc2C2CC2)cc1` [I-18] gave an IC50 of 500 to 1000 nM.
On to `COCCOc1ccc(-c2nc(Nc3ncc(-c4cccs4)cc3C(=O)O)sc2CCC(C)C)cc1F` [I-46], for which the IC50 is not above 500 nM.
